Laboratory results from PMC9481570, “A small molecule antagonist of SMN disrupts the interaction between SMN and RNAP II” (Nature Communications, 2022).

Tests used:
SMN_N132A = target: T1, SMN_N132A (Homo sapiens, UniProt Q16637, N132A); assay: ITC binding to SMN Tudor mutant N132A; details: Fig. 3d
T1 construct: cloned into pET28-MHL vector: SMN (aa 82–147); His (N, cleaved yes); made in house; host or cells: E. coli BL21 (DE3) Codon plus RIL
From the text: (§1) The coding DNA fragments of following Tudor domains were cloned into pET28-MHL vector: SMN (aa 82–147), UHRF1 (aa 126–285), SMNDC1 (aa 53–130), TDRD3 (aa 554–611), SND1 (aa 650–910), TDRD2 (aa 327–420), FXR1 (aa 2–132), PHF1 (aa 28–87), SGF29 (aa 115–293), JMJD2A (aa 897–1101), 53BP1 (aa 1483–1606), SETDB1 (aa 190–410), LBR (aa 1–67), ZGPAT (aa 120–271). The coding regions of chromodomain of CBX7 (aa 8–62), PWWP domain of DNMT3A (aa 275–417), WD40 repeats of WDR5 (aa 24–334) and CW domain of ZCWPW2 (aa 21–78) were also subcloned into pET28-MHL vector to generate N-terminally His-tagged fusion protein. The MBT repeats of L3MBTL1 (aa 200–522) and L3MBTL2 (aa 170–625) were subcloned into pET28GST-LIC vector to generate N-terminally GST-His-tagged fusion protein. All the plasmids were generated by ligase independent cloning (Vazyme Biotech, C112 or ABclonal Technology, RK21020). […] The molecular weight of all protein samples was measured by mass spectrometry.
(§2) For the ITC measurement, the concentrated proteins were diluted into 20 mM Tris-HCl, pH 7.5, 150 mM NaCl (ITC buffer); the lyophilized compounds were dissolved in the same buffer, and the pH value was adjusted by adding 2 M NaOH or 2 M HCl. […] Compound concentrations were calculated from the mass and the volume of the solvent. […]

L3MBTL1 (MBT) = target: T2, L3MBTL1 (MBT) (Homo sapiens, UniProt Q9Y468); assay: ITC binding to MBT repeats of L3MBTL1
T2 construct: L3MBTL1 (aa 200–522); GST-His (N, cleaved yes); made in house; host or cells: E. coli BL21 (DE3) Codon plus RIL
From the text: as §1, §2

SMN_W102F = target: T3, SMN_W102F (Homo sapiens, UniProt Q16637, W102F); assay: ITC binding to SMN Tudor mutant W102F; details: Fig. 3d
T3 construct: SMN (aa 82–147); His (N, cleaved yes); made in house; host or cells: E. coli BL21 (DE3) Codon plus RIL
From the text: as §1, §2

SGF29 = target: T4, SGF29 (Homo sapiens, UniProt Q96ES7); assay: ITC binding to SGF29; details: Fig. 1c
T4 construct: SGF29 (aa 115–293); His (N, cleaved yes); made in house; host or cells: E. coli BL21 (DE3) Codon plus RIL
From the text: as §1, §2

SMN_N132D = target: T5, SMN_N132D (Homo sapiens, UniProt Q16637, N132D); assay: ITC binding to SMN Tudor mutant N132D; details: Fig. 3d
T5 construct: cloned into pET28-MHL vector: SMN (aa 82–147); His (N, cleaved yes); made in house; host or cells: E. coli BL21 (DE3) Codon plus RIL
From the text: as §1, §2

[1] = tested on: UHRF1_TTD aromatic cage residues mutated to alanine; assay: ITC binding to UHRF1 TTD aromatic cage mutants; details: Supplementary Fig. 9e
From the text: as §1, §2

SND1_F740W = target: T6, SND1_F740W (Homo sapiens, UniProt Q7KZF4, F740W); assay: ITC binding to SND1 mutant F740W; details: Supplementary Fig. 11c, iTC-200; read-out: Kd, ITC binding curve, SND1_F740W
T6 construct: SND1 (aa 650–910); His (N, cleaved yes); made in house; host or cells: E. coli BL21 (DE3) Codon plus RIL
From the text: as §1, §2

CBX7 (CD) = target: T7, CBX7 (CD) (Homo sapiens, UniProt O95931); assay: ITC binding to chromodomain of CBX7; details: Fig. 1c
T7 construct: CBX7 (aa 8–62); His (N, cleaved yes); made in house; host or cells: E. coli BL21 (DE3) Codon plus RIL
From the text: as §1, §2

SMN_W102A = target: T8, SMN_W102A (Homo sapiens, UniProt Q16637, W102A); assay: ITC binding to SMN Tudor mutant W102A; details: Fig. 3d
T8 construct: SMN (aa 82–147); His (N, cleaved yes); made in house; host or cells: E. coli BL21 (DE3) Codon plus RIL
From the text: as §1, §2

SETDB1 = target: T9, SETDB1 (Homo sapiens, UniProt Q15047); assay: ITC binding to SETDB1; details: Fig. 1c
T9 construct: SETDB1 (aa 190–410); His (N, cleaved yes); made in house; host or cells: E. coli BL21 (DE3) Codon plus RIL
From the text: as §1, §2

T2 sequence (Q9Y468 268-590): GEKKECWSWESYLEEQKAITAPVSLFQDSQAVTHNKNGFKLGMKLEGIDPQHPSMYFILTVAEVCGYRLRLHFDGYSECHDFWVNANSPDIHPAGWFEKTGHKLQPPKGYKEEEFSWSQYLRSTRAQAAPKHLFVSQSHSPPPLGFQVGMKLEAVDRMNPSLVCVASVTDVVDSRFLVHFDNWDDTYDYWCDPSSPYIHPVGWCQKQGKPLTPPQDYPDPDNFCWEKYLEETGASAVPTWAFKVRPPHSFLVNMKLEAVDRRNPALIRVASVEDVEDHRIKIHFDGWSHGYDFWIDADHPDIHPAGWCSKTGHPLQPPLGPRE
T1 sequence (Q16637 82-147 N132A): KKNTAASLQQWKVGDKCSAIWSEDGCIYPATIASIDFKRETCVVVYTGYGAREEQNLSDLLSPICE
T3 sequence (Q16637 82-147 W102F): as the sequence (Q16637 82-147 N132A) above, with W21F, A51N counted along it
T4 sequence (Q96ES7 115-293): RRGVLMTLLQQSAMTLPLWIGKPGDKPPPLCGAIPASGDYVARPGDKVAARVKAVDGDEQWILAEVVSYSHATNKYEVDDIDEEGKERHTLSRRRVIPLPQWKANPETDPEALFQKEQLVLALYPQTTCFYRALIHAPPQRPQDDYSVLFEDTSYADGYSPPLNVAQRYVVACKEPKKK
T6 sequence (Q7KZF4 650-910 F740W): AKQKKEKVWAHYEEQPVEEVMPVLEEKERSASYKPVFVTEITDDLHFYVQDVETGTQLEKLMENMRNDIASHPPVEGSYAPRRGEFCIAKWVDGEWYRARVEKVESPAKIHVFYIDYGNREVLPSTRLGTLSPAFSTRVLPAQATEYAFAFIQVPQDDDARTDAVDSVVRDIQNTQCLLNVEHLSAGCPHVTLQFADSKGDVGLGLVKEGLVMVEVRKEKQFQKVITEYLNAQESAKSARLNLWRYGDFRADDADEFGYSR
T7 sequence (O95931 8-62): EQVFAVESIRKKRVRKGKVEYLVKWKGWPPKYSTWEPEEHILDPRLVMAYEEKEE
T5 sequence (Q16637 82-147 N132D): as the sequence (Q16637 82-147 N132A) above, with A51D counted along it
T8 sequence (Q16637 82-147 W102A): as the sequence (Q16637 82-147 N132A) above, with W21A, A51N counted along it

In the case of `Cn1c2c(c(=N)c3c1CCC3)CCC2` [Compound 1, 4-methyl-2,3,4,5,6,7-hexahydrodicyclopenta[b,e]pyridin-8(1H)-imine], the Kd (SMN_N132A) is reported as 70 ± 6 µM, the Kd (L3MBTL1 (MBT); ITC, Fig. 1c) is reported as over 100 µM and the “ITC binding curve, MBT repeats of L3MBTL1 (in words)” value (L3MBTL1 (MBT); Supplementary Fig. 2f) is reported as “Weak binding”. The Kd (SMN_W102F) was over 100 µM, the Kd (SGF29) was over 244 µM and the Kd (SMN_N132D) was 3.3 ± 0.1 µM. The “binding affinity to UHRF1_TTD aromatic cage alanine mutants” value [1] was “not affected significantly”, the Kd (SND1_F740W) was 38 ± 8 µM and the Kd (CBX7 (CD)) was over 244 µM. For the same compound, the Kd (SMN_W102A) was over 244 µM and the Kd (SETDB1) was over 244 µM.
